Laboratory results: PMC7126465 (Bioorganic & Medicinal Chemistry, 2017)
Read-outs that look alike come from different tables or passages of the source.

Key:
[1] = tested on: herpesviruses (HSV, VZV, HCMV); assay: Anti-herpesvirus activity overall; format: cell-based; conditions: for Anti-herpesvirus activity (in words): HEL cells
[2] = tested on: human embryonic lung (HEL) cells; assay: Cytotoxicity, alteration of cell morphology; format: cell-based; conditions: microscopically detectable alteration of cell morphology
[3] = tested on: VZV; assay: microbe, parasite or virus in culture; format: cell-based, varicella-zoster virus; conditions: for EC50: Human alphaherpesvirus 3, HEL, read-out: EC50 range against VZV
[4] = tested on: HCMV; assay: microbe, parasite or virus in culture; format: cell-based, human cytomegalovirus; conditions: for EC50: read-out: EC50 range against HCMV
[5] = tested on: HSV; assay: organism not typed; format: cell-based, herpes simplex virus; conditions: for EC50: HEL, read-out: EC50 range against HSV
[6] = tested on: HSV-2 (G); assay: Antiviral CPE inhibition, HSV-2; format: cell-based, herpes simplex virus type 2; conditions: read-out: EC50 (HEL) HSV-2 (G); HEL cells
[7] = tested on: VZV TK− (07-1); format: cell-based, varicella-zoster virus; conditions: read-out: EC50 (HEL) VZV TK− (07-1)
[8] = tested on: HSV-1 TK− KOS ACVr; assay: Antiviral CPE inhibition, TK- HSV-1 KOS ACVr in HEL cells; format: cell-based, herpes simplex virus type 1; conditions: read-out: EC50 (HEL) HSV-1 TK− KOS ACVr
[9] = tested on: HCMV (AD-169); assay: Antiviral assay, HCMV; format: cell-based, human cytomegalovirus; conditions: read-out: EC50 (HEL) HCMV (AD-169); HEL cells
[10] = tested on: Vaccinia virus; assay: microbe, parasite or virus in culture; format: cell-based, vaccinia virus Lederle strain; conditions: for EC50: read-out: EC50 (HEL) Vaccinia virus
[11] = tested on: VZV TK+ (Oka); format: cell-based, varicella-zoster virus; conditions: read-out: EC50 (HEL) VZV TK+ (Oka); HEL cells
[12] = tested on: HCMV (Davis); assay: Antiviral assay, HCMV; format: cell-based, human cytomegalovirus; conditions: read-out: EC50 (HEL) HCMV (Davis); HEL cells
[13] = tested on: human embryonic lung (HEL) cells; assay: Cytostatic activity, inhibition of HEL cell growth; format: cell-based

Compound: CC(C)OC(=O)OCOP(=O)(O)COCCn1cnc(N)nc1=O [Compound 8, (Isopropoxycarbonyl)oxymethyl ester of 1-[2-(phosphonomethoxy)ethyl]-5-azacytosine]
- Anti-herpesvirus activity (in words) [1]: minimal or no anti-herpesvirus activities
- Cytotoxicity MCC (minimum cytotoxic concentration) [2]: >100 µM

Compound: O=c1[nH]c(=O)n([C@H]2C[C@H](O)[C@@H](CO)O2)cc1/C=C/Br [Brivudin, reference compound]
- Cytotoxicity MCC (minimum cytotoxic concentration) [2]: 300 µM

Compound: Nc1nc2c(ncn2COCCO)c(=O)[nH]1 [Acyclovir, reference compound]
- Cytotoxicity MCC (minimum cytotoxic concentration) [2]: >440 µM

Compound: CC(C)(C)C(=O)OCOP(=O)(COCCn1cnc(N)nc1=O)OCOC(=O)C(C)(C)C [Compound 9, Bis(pivaloyloxymethyl) ester of 1-[2-(phosphonomethoxy)ethyl]-5-azacytosine]
- EC50 [3]: 0.7 to 1.3 µM
- Selectivity index (SI, ratio CC50/EC50) VZV ([3]; range over VZV strains): 35–71
- Cytotoxicity MCC (minimum cytotoxic concentration) [2]: 209 µM
- EC50 ([4]; Human betaherpesvirus 5, HEL): 1 to 3 µM
- Selectivity index (SI, ratio CC50/EC50) HCMV ([4]; range over HCMV strains): 14–47
- EC50 [5]: 0.7 to 1.3 µM
- Selectivity index (SI, ratio CC50/EC50) HSV ([5]; range over HSV strains): 37–63

Compound: CC(C)OC(=O)OCOP(=O)(COCCn1cnc(N)nc1=O)OCOC(=O)OC(C)C [Compound 7, Bis[(isopropoxycarbonyl)oxymethyl] ester of 1-[2-(phosphonomethoxy)ethyl]-5-azacytosine]
- Cytotoxicity MCC (minimum cytotoxic concentration) [2]: >100 µM

Compound: CCCCCCCCCCCCCCCCCCOCCOP(=O)(O)COCCn1cnc(N)nc1=O [Compound 17, Octadecyloxyethyl ester of 1-[2-(phosphonomethoxy)ethyl]-5-azacytosine]
- EC50 [3]: 0.32 to 0.8 µM
- Selectivity index (SI, ratio CC50/EC50) VZV ([3]; range over VZV strains): 100–248
- Cytotoxicity MCC (minimum cytotoxic concentration) [2]: 100 ± 0 µM
- EC50 ([4]; Human betaherpesvirus 5, HEL): 0.24 to 1.12 µM
- Selectivity index (SI, ratio CC50/EC50) HCMV ([4]; range over HCMV strains): 71–330
- EC50 [5]: 0.15 to 0.35 µM
- Selectivity index (SI, ratio CC50/EC50) HSV ([5]; range over HSV strains): 226–528

Compound: CCCCCCCCCCCCCCCCCCOCCOP(=O)(COCCn1cnc(N)nc1=O)OCCOCCCCCCCCCCCCCCCCCC [Compound 15, Bis(octadecyloxyethyl) ester of 1-[2-(phosphonomethoxy)ethyl]-5-azacytosine]
- Anti-herpesvirus activity (in words) [1]: deprived of anti-herpesvirus properties
- Cytotoxicity MCC (minimum cytotoxic concentration) [2]: 20 µM

Compound: CC(C)(C)C(=O)OCOP(=O)([O-])COCCOc1cc(N)nc(N)n1.[Na+] [Compound 3, Pivaloyloxymethyl ester of 2,4-diamino-6-[2-(phosphonomethoxy)ethoxy]-pyrimidine]
- Anti-herpesvirus activity (in words) [1]: potency and selectivity virtually identical to PMEO-DAPy
- Cytotoxicity MCC (minimum cytotoxic concentration) [2]: >100 µM

Compound: CCOC(=O)[C@H](Cc1ccccc1)NP(=O)(COCCn1cnc(N)nc1=O)N[C@@H](Cc1ccccc1)C(=O)OCC [Compound 12, Bis(L-phenylalanineethyl ester) prodrug of 1-[2-(phosphonomethoxy)ethyl]-5-azacytosine]
- EC50 [3]: 27 to 29 µM
- Cytotoxicity MCC (minimum cytotoxic concentration) [2]: >100 µM
- EC50 ([4]; Human betaherpesvirus 5, HEL): 7.5 to 15.5 µM
- EC50 [5]: 32 to 42 µM

Compound: COP(=O)(O)COCCn1cnc(N)nc1=O [Compound 14, Methyl ester of [2-(phosphonomethoxy)ethyl]-5-azacytosine]
- Anti-herpesvirus activity (in words) [1]: lacked activity against herpesviruses
- Cytotoxicity MCC (minimum cytotoxic concentration) [2]: >100 µM

Compound: Nc1nc(O)c2ncn(COC(CO)CO)c2n1 [Ganciclovir, reference compound]
- Cytotoxicity MCC (minimum cytotoxic concentration) [2]: >350 µM

Compound: Nc1cc(OCCOCP(=O)(O)O)nc(N)n1 [Compound 1, 2,4-diamino-6-[2-(phosphonomethoxy)ethoxy]pyrimidine]
- Selectivity index (SI, ratio CC50/EC50) VZV ([3]; range over VZV strains): 19–44
- Cytotoxicity MCC (minimum cytotoxic concentration) [2]: >100 µM
- Selectivity index (SI, ratio CC50/EC50) HSV ([5]; range over HSV strains): 1.7–4.5

Compound: CCCCCCCCCCCCCCCCNC(=O)[C@@H](N)Cc1ccc(OP(=O)(COCCn2cnc(N)nc2=O)Oc2ccc(C[C@H](N)C(=O)NCCCCCCCCCCCCCCCC)cc2)cc1 [Compound 23, Bis(Hexadecylamido-L-tyrosyl) ester of 1-[2-(phosphonomethoxy)ethyl]-5-azacytosine]
- Selectivity index (SI, ratio CC50/EC50) VZV [3]: 47–93
- Cytotoxicity MCC (minimum cytotoxic concentration) [2]: 60 ± 57 µM
- Selectivity index (SI, ratio CC50/EC50) HCMV [4]: 13–56
- Selectivity index (SI, ratio CC50/EC50) HSV [5]: 45–68

Compound: Bis[(isopropoxycarbonyl)oxymethyl] ester of 2,4-diamino-6-[2-(phosphonomethoxy)ethoxy]pyrimidine [Compound 4]
- EC50 [6]: 1.01 ± 0.86 µM
- EC50 [7]: 0.29 ± 0.19 µM
- EC50 [8]: 3.7 ± 3 µM
- Fold more active than parental drug PMEO-DAPy (VZV) [3]: 3–16 fold
- Selectivity index (SI, ratio CC50/EC50) VZV ([3]; range over VZV strains): 15–52
- EC50 [9]: 90.1 µM
- Cytotoxicity MCC (minimum cytotoxic concentration) [2]: >202 µM
- Selectivity index (SI, ratio CC50/EC50) HCMV ([4]; range over HCMV strains): ≤ 1
- EC50 ([4]; range over HCMV strains, HEL cells): 86 to 90 µM
- Fold more active than parental drug PMEO-DAPy (HSV) [5]: 6–20 fold
- Selectivity index (SI, ratio CC50/EC50) HSV ([5]; range over HSV strains): 4–15
- Anti-vaccinia virus activity (in words) [10]: very low anti-vaccinia virus activity without selectivity
- EC50 [10]: 160 ± 60 µM
- EC50 [11]: 0.32 ± 0.37 µM
- EC50 [12]: 86.3 ± 5.4 µM

Compound: CCOC(=O)[C@H](C)NP(=O)(COCCOc1cc(N)nc(N)n1)N[C@@H](C)C(=O)OCC [Compound 5, Bis(L-alanineethyl ester) prodrug of 2,4-diamino-6-[2-(phosphonomethoxy)ethoxy]pyrimidine]
- Fold more active than parental drug PMEO-DAPy (VZV) [3]: 3–16 fold
- Selectivity index (SI, ratio CC50/EC50) VZV ([3]; range over VZV strains): 15–52
- Cytotoxicity MCC (minimum cytotoxic concentration) [2]: 217 µM
- EC50 ([4]; Human betaherpesvirus 5, HEL): 17 to 29 µM
- Selectivity index (SI, ratio CC50/EC50) HCMV ([4]; range over HCMV strains): ≤ 1
- Fold more active than parental drug PMEO-DAPy (HSV) [5]: 6–20 fold
- Selectivity index (SI, ratio CC50/EC50) HSV ([5]; range over HSV strains): 4–15
- Anti-vaccinia virus activity (in words) [10]: very low anti-vaccinia virus activity without selectivity

Compound: CC(C)(C)C(=O)OCOP(=O)([O-])COCCn1cnc(N)nc1=O.[Na+] [Compound 10, Pivaloyloxymethyl ester of 1-[2-(phosphonomethoxy)ethyl]-5-azacytosine, sodium salt]
- Anti-herpesvirus activity (in words) [1]: minimal or no anti-herpesvirus activities
- Cytotoxicity MCC (minimum cytotoxic concentration) [2]: >275 µM

Compound: Nc1ccn(C[C@@H](CO)OCP(=O)(O)O)c(=O)n1.O.O [Cidofovir, reference compound]
- Cytotoxicity MCC (minimum cytotoxic concentration) [2]: ≥300 µM

Compound: CCCCCCCCCCCCCCCCCCOCCNc1ncn(CCOCP(=O)(OCCOCCCCCCCCCCCCCCCCCC)OCCOCCCCCCCCCCCCCCCCCC)c(=O)n1 [Compound 16, Bis(octadecyloxyethyl) ester of N^4-octadecyloxyethyl-1-[2-(phosphonomethoxy)ethyl]-5-azacytosine]
- Anti-herpesvirus activity (in words) [1]: deprived of anti-herpesvirus properties
- Cytotoxicity MCC (minimum cytotoxic concentration) [2]: 100 µM

Compound: CC(C)(C)C(=O)OCOP(=O)(COCCOc1cc(N)nc(N)n1)OCOC(=O)C(C)(C)C [Compound 2, Bis(pivaloyloxymethyl) ester of 2,4-diamino-6-[2-(phosphonomethoxy)ethoxy]pyrimidine]
- Fold more cytostatic than PMEO-DAPy [13]: 5.5 fold
- Fold more active than PMEO-DAPy (anti-herpesvirus activity) [1]: 2 to 4.5 fold
- Cytotoxicity MCC (minimum cytotoxic concentration) [2]: ≥100 µM
- EC50 ([10]; Orthopoxvirus vaccinia, HEL): ≥ 20 µM

Compound: CCOC(=O)[C@H](Cc1ccccc1)NP(=O)(O)COCCn1cnc(N)nc1=O [Compound 13, (L-Phenylalanine ethyl ester) prodrug of 1-[2-(phosphonomethoxy)ethyl]-5-azacytosine]
- Anti-herpesvirus activity (in words) [1]: lacked activity against herpesviruses
- Cytotoxicity MCC (minimum cytotoxic concentration) [2]: >100 µM
